The structures appear in SMILES notation. Some results are limits rather than exact numbers.

This assay addresses POLRMT (Homo sapiens, UniProt O00411). In words: homogeneous TR-FRET assay of mitochondrial transcription (inhibition of POLRMT). It counts as biochemical. As for the experimental part:
The inhibitory activity of the compounds of the present invention against POLRMT were determined by assays based on Bergbrede, T., et al., “An adaptable high-throughput technology enabling the identification of specific transcription modulators,” SLAC Discov., 22, 378-386 (2017).
The ability of some compounds of the present invention to inhibit POLRMT were determined in a homogeneous TR-FRET Assay using high-throughput screening in a 384-well plate format. This method is used to monitor the activity of mitochondrial transcription through measurement of its product, a 407 bp long RNA transcript. Detection of the product is facilitated by hybridization of two DNA-oligonucleotide probes to specific and adjacent sequences within the RNA product sequence. Upon annealing of the probes, two fluorophores are coupled directly to an acceptor nucleotide probe (ATTO647, 5′), or introduced via a coupled streptavidin with a biotinylated donor nucleotide probe (Europium cryptate) that is brought into sufficient proximity to serve as a fluorescence-donor-acceptor pair. Thus, a FRET signal at 665 nm is generated upon excitation at 340 nm.
Proteins used as transcription factors (POLRMT: NP_005026.3, TFAM: NP_003192.1, TFB2M: NP_071761.1) are diluted from their stocks to working concentrations of 1 μM, 20 μM and 4 μM respectively, in a dilution buffer containing 20 mM Tris-HCl (pH 8.0), 200 mM NaCl, 10% (v/v) glycerol, 1 mM Dithiothreitol (DTT), 0.5 mM EDTA.
DNA template is a pUC18 plasmid with the mitochondrial light strand promotor sequence (1-477) cloned between HindIII and BamHI sites. The DNA template is restriction linearized proximal to the promotor 3′-end (pUC-LSP).
The reaction mixture (10 uL) containing 7.5 nM POLRMT, 15 nM of TFB2M, 30 nM of TFAM, 0.5 nM of DNA template and 500 μM nucleotide triphosphate mix (NTPs) in a reaction buffer (containing 10 mM Tris-HCl (pH 7.5), 10 mM MgCl2, 40 mM NaCl, 10 mM DTT, 0.005% (w/v) Tween-20, 160 units/ml Rnase inhibitor and 0.1 mg/mL BSA) are dispensed to compounds in microplates, using a Thermo Multidrop® dispenser, and incubated at 37° C. in a VWR INCU-Line incubator for 60 minutes after mixing. No nucleotide triphosphate mix is added to negative control samples. Microplates with compounds to be tested in the assay are prepared from 10 mM compound stocks in 100% DMSO, equal amounts of DMSO without any compound are added to positive control and negative control samples.
During the incubation, a mix of the detection reagents is prepared in a buffer such that the enzymatic reaction is terminated due to chelating of Mg-ions and increased ionic strength, containing 50 mM Tris-HCl (pH 7.5), 700 mM NaCl, 20 mM EDTA, and 0.010% (w/v) Tween-20. Europium-streptavidin is pre-incubated with a 200-fold molar excess of a random sequence oligonucleotide to block unspecific binding of oligo, for two hours at ambient temperature in the dark. Afterwards, the blocked Europium-streptavidin is kept on ice until use.
At the end of the enzymatic reaction time, 5 μL detection oligo mix in the detection buffer is added, and assay plates are mixed and kept at ambient temperature for one hour, protected from light. The concentration of the Acceptor nucleotide oligo (e.g., ATTO647N-5′-[…]-3′) and Donor nucleotide oligo (e.g., bio-5′-AACACATCTCT(-bio)GCCAAACCCCA-bio-3′) in each assay well is 1 nM, and 3 nM, respectively.
After incubation with oligo mix, 5 μL of pre-blocked Europium-streptavidin reagent is dispensed to each assay well, assay plates are again mixed and kept at ambient temperature for one hour, protected from light.
The generated signal is measured with BMG Pherastar microtiter plate reader with a TRF light unit, using excitation at 340 nm, an integration time of 200 μs, and a delay time of 100 μs, before detection at 620 nm and 665 nm. The ratio of donor- and acceptor-fluorescence is used as a measure of the generated transcript product (i.e. enzymatic activity).
(In general: In TR-FRET formats the signal depends on donor and acceptor labels being close together.)

The mark [1] stands for this setting: isoquinolinone compounds (Table 1).
Where [2] appears, read: quinolinone compounds (Table 2).

Chain of POLRMT (O00411 42-1230): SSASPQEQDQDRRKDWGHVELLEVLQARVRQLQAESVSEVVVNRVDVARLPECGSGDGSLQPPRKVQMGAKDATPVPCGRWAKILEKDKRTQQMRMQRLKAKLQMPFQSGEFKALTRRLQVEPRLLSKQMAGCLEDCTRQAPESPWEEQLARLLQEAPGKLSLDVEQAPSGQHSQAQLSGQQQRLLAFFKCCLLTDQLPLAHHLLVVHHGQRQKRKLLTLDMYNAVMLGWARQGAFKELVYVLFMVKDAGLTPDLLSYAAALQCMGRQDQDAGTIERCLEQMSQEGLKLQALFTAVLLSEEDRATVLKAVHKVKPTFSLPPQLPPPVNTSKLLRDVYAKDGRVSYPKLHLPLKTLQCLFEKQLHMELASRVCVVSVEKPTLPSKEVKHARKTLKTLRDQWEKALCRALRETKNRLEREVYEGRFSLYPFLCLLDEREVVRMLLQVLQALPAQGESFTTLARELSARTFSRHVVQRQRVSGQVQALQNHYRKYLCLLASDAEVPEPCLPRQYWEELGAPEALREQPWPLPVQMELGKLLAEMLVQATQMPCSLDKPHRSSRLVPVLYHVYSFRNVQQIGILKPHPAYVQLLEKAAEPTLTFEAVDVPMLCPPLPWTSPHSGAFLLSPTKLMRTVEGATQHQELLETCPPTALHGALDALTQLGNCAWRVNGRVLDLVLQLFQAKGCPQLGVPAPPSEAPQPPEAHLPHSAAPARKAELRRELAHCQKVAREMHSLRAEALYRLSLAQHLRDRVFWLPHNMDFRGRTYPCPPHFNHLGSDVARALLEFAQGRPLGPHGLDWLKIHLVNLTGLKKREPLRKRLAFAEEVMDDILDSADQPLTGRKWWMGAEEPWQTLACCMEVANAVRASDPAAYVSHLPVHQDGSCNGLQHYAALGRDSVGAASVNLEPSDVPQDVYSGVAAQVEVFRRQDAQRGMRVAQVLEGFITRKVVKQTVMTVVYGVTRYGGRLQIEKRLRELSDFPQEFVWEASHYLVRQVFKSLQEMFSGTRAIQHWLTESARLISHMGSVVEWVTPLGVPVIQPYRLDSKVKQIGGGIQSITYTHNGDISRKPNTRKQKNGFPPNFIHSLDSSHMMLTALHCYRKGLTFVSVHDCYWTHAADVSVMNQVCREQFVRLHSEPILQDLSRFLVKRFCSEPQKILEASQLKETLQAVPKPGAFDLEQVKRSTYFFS

In turn, `Cc1ccccc1-c1c[nH]c(=O)c2cc(OCC(N)=O)ccc12` [Example 63, 2-((1-oxo-4-(o-tolyl)-1,2-dihydroisoquinolin-7-yl)oxy)acetamide] registered an IC50 under setting [1] of 3000 nM.

Under setting [1], `Cc1ccccc1-c1c[nH]c(=O)c2cc(OCC(F)(F)F)ccc12` [Example 65, 4-(o-tolyl)-7-(2,2,2-trifluoroethoxy)isoquinolin-1(2H)-one] displayed an IC50 of 30 nM. This IC50 is about 100-fold lower than that of the molecule before.

As to `C[C@@H](Oc1ccc2c(-c3ccc(F)cc3Cl)c[nH]c(=O)c2c1)C(=O)N1CCOC[C@@H]1C(=O)O` [Example 115, (R)-4-((R)-2-((4-(2-chloro-4-fluorophenyl)-1-oxo-1,2-dihydroisoquinolin-7-yl)oxy)propanoyl)morpholine-3-carboxylic acid], under setting [1], 400 nM corresponded to half-maximal inhibition (IC50).

Under setting [1], `N#CCOc1ccc2c(-c3ccc(F)cc3Cl)c[nH]c(=O)c2c1` [Example 37, 2-((4-(2-chloro-4-fluorophenyl)-1-oxo-1,2-dihydroisoquinolin-7-yl)oxy)acetonitrile] gave an IC50 of 900 nM. This IC50 is about 2.2-fold higher than that of the molecule before.

For the molecule `C[C@@H](Oc1ccc2c(-c3ccc(F)cc3Cl)c[nH]c(=O)c2c1)C(=O)N1CCC[C@H](C(N)=O)C1` [Example 82, (S)-1-((R)-2-((4-(2-chloro-4-fluorophenyl)-1-oxo-1,2-dihydroisoquinolin-7-yl)oxy)propanoyl)piperidine-3-carboxamide], the midpoint of inhibition under setting [1], the IC50, lay at 90 nM.

`Cc1ccccc1-c1c[nH]c(=O)c2cc(CN)ccc12` [Example 38, 7-(aminomethyl)-4-(o-tolyl)isoquinolin-1(2H)-one] registered an IC50 under setting [1] of over 100000 nM.

The molecule `C[C@H]1CN(C(=O)[C@@H](C)Oc2ccc3c(-c4ccc(F)cc4Cl)c[nH]c(=O)c3c2)C[C@H](C)O1` (single isomer, unassigned) [Example 125] displayed an IC50 under setting [1] of 200 nM.

Regarding `CC(C#N)Oc1ccc2c(-c3ccc(F)cc3Cl)c[nH]c(=O)c2c1` (single isomer, unassigned) [Example 49, 2-((4-(2-chloro-4-fluorophenyl)-1-oxo-1,2-dihydroisoquinolin-7-yl)oxy)propanenitrile], the concentration for half-maximal inhibition (IC50) under setting [1] came out at 5000 nM.

With `COc1ccc2c(-c3ccccc3)cc(=O)[nH]c2c1` [Example Q9, 7-methoxy-4-phenylquinolin-2(1H)-one], under setting [2], the IC50 is over 100000 nM.

Under setting [1], `C[C@@H](Oc1ccc2c(-c3ccc(F)cc3Cl)c[nH]c(=O)c2c1)C(=O)N1CCO[C@@H](C(=O)O)C1` [Example 120, (R)-4-((R)-2-((4-(2-chloro-4-fluorophenyl)-1-oxo-1,2-dihydroisoquinolin-7-yl)oxy)propanoyl)morpholine-2-carboxylic acid] registered an IC50 of 300 nM.

On to `C[C@@H](Oc1ccc2c(-c3ccc(F)cc3Cl)c[nH]c(=O)c2c1)C(=O)N1CC2CC1CN2C` (stereo partly drawn) [Example 127, 4-(2-chloro-4-fluorophenyl)-7-(((2R)-1-(5-methyl-2,5-diazabicyclo[2.2.1]heptan-2-yl)-1-oxopropan-2-yl)oxy)isoquinolin-1(2H)-one], for which the IC50 under setting [1] was found to be 2000 nM. This IC50 is about 6.7-fold higher than that of the molecule before.

On to `COCC(Oc1ccc2c(-c3ccccc3C)c[nH]c(=O)c2c1)C(=O)O` (stereo not shown) [Example 51, 3-methoxy-2-((1-oxo-4-(o-tolyl)-1,2-dihydroisoquinolin-7-yl)oxy)propanoic acid], for which it took 6000 nM to reach half-maximal inhibition under setting [1] (IC50).

As for `Cc1c(F)cccc1-c1c[nH]c(=O)c2cc(OCC#N)ccc12` [Example 135, 2-((4-(3-fluoro-2-methylphenyl)-1-oxo-1,2-dihydroisoquinolin-7-yl)oxy)acetonitrile], the IC50 under setting [1] came to 200 nM.

`C[C@@H](Oc1ccc2c(-c3ccc(F)cc3Cl)c[nH]c(=O)c2c1)C(=O)N1CCCC(S(C)(=O)=O)C1` (single isomer, unassigned) [Example 96] had an IC50 under setting [1] of 2000 nM.

Take `Cc1ccccc1-c1c[nH]c(=O)c2cc(O[C@H](C)C(=O)N3CCC[C@H](C(=O)O)C3)ccc12` [Example 22, (S)-1-((R)-2-((1-oxo-4-(o-tolyl)-1,2-dihydroisoquinolin-7-yl)oxy)propanoyl)piperidine-3-carboxylic acid]: it took 40 nM to reach half-maximal inhibition under setting [1] (IC50).

In turn, `Cc1ccccc1-c1c[nH]c(=O)c2cc(OCC(C)C)ccc12` [Example 6, 7-isobutoxy-4-(o-tolyl)isoquinolin-1(2H)-one] yielded an IC50 under setting [1] of 200 nM.

As for `COc1ccc2c(-c3ccc(F)cc3Cl)cc(=O)[nH]c2c1` [Example Q1, 4-(2-chloro-4-fluorophenyl)-7-methoxyquinolin-2(1H)-one], under setting [2], the IC50 is over 100000 nM.

With `C[C@@H](Oc1ccc2c(-c3ccc(F)cc3Cl)c[nH]c(=O)c2c1)C(=O)N1CCOC[C@H]1C(N)=O` [Example 123, (S)-4-((R)-2-((4-(2-chloro-4-fluorophenyl)-1-oxo-1,2-dihydroisoquinolin-7-yl)oxy)propanoyl)morpholine-3-carboxamide], half-maximal inhibition under setting [1] (IC50) required 300 nM.

Under setting [1], `C[C@H](Oc1ccc2c(-c3ccc(F)cc3Cl)c[nH]c(=O)c2c1)C(=O)N1CCC[C@H](C(=O)O)C1` [Example 59, (S)-1-((S)-2-((4-(2-chloro-4-fluorophenyl)-1-oxo-1,2-dihydroisoquinolin-7-yl)oxy)propanoyl)piperidine-3-carboxylic acid] returned an IC50 of 25000 nM.

`COCC(C)Oc1ccc2c(-c3ccccc3C)c[nH]c(=O)c2c1` (single isomer, unassigned) [Example 26, 7-((1-methoxypropan-2-yl)oxy)-4-(o-tolyl)isoquinolin-1(2H)-one] registered an IC50 under setting [1] of 1000 nM. This IC50 lies about 25-fold lower than the previous one.

The molecule `C[C@@H](Oc1ccc2c(-c3ccc(F)cc3Cl)c[nH]c(=O)c2c1)C(=O)N1CCOC[C@@H]1C(N)=O` [Example 122, (R)-4-((R)-2-((4-(2-chloro-4-fluorophenyl)-1-oxo-1,2-dihydroisoquinolin-7-yl)oxy)propanoyl)morpholine-3-carboxamide] showed a 50% inhibitory concentration (IC50) under setting [1] of 300 nM.

Take `CCC(C)Oc1ccc2c(-c3ccccc3C)cc(=O)[nH]c2c1` (stereo not shown) [Example Q11, 7-(sec-butoxy)-4-(o-tolyl)quinolin-2(1H)-one]: the IC50 under setting [2] is 3000 nM.

With `Cc1ccccc1-c1c[nH]c(=O)c2cc(O[C@H](C)C(=O)N3CCCC(S(C)(=O)=O)C3)ccc12` (single isomer, unassigned) [Example 98], half-maximal inhibition under setting [1] (IC50) was put at 300 nM.

`Cc1sccc1-c1c[nH]c(=O)c2cc(OCC#N)ccc12` [Example 133, 2-((4-(2-methylthiophen-3-yl)-1-oxo-1,2-dihydroisoquinolin-7-yl)oxy)acetonitrile] gave an IC50 under setting [1] of 1000 nM. Against the preceding molecule, the IC50 is about 3.3-fold higher.

In turn, `CC(=O)N1CC[C@H](Oc2ccc3c(-c4ccccc4C)c[nH]c(=O)c3c2)C1` [Example 17, (S)-7-((1-acetylpyrrolidin-3-yl)oxy)-4-(o-tolyl)isoquinolin-1(2H)-one] registered an IC50 under setting [1] of 82000 nM. Against the preceding molecule, the IC50 is about 82-fold higher.

Molecule `Cc1ccccc1-c1c[nH]c(=O)c2cc(OCC#N)ccc12` [Example 36, 2-((1-oxo-4-(o-tolyl)-1,2-dihydroisoquinolin-7-yl)oxy)acetonitrile] yielded a 50% inhibitory concentration (IC50) under setting [1] of 200 nM.

`Cc1ccccc1-c1c[nH]c(=O)c2cc(OC(C)C(F)(F)F)ccc12` (stereo not shown) [Example 61, 4-(o-tolyl)-7-((1,1,1-trifluoropropan-2-yl)oxy)isoquinolin-1(2H)-one] yielded an IC50 under setting [1] of 400 nM.

`CNC(=O)[C@H](C)Oc1ccc2c(-c3ccccc3C)c[nH]c(=O)c2c1` [Example 28, (S)—N-methyl-2-((1-oxo-4-(o-tolyl)-1,2-dihydroisoquinolin-7-yl)oxy)propenamide]: under setting [1], the IC50 was 36000 nM. Against the preceding molecule, the IC50 is about 90-fold higher.

As usually defined, the IC50 is the concentration that inhibits the measured activity by half.

These data come from patent US20240391875A1, “ISOQUINOLINONES AND QUINOLINONES AS MODULATORS OF POLRMT” (Pretzel Therapeutics, Inc., priority 2021, published 2024).
